From patent US20260137703A1, “2-AMINO-PYRIDO[2,3-D]PYRIMIDIN-7(8H)-ONE AND 7-AMINO-1-PYRIMIDO[4,5-D]PYRIMIDIN-2(1 H)-ONE DERIVATIVES AS EGFR INHIBITORS FOR THE TREATMENT OF CANCER” (Cancer Research Technology Limited, priority 2022, published 2026)

Tests used:
[1] = molecular target: T1, Phospho-EGFR (Tyr1068) in H1975 cells (Homo sapiens, UniProt P00533, L858R/T790M); assay: HTRF pEGFR/total EGFR in H1975 cells; format: cell-based; conditions: ratio pEGFR/total EGFR, compound 3 hours
T1 construct: host or cells: H1975
T1 sequence (P00533 25-1210 T790M/L858R): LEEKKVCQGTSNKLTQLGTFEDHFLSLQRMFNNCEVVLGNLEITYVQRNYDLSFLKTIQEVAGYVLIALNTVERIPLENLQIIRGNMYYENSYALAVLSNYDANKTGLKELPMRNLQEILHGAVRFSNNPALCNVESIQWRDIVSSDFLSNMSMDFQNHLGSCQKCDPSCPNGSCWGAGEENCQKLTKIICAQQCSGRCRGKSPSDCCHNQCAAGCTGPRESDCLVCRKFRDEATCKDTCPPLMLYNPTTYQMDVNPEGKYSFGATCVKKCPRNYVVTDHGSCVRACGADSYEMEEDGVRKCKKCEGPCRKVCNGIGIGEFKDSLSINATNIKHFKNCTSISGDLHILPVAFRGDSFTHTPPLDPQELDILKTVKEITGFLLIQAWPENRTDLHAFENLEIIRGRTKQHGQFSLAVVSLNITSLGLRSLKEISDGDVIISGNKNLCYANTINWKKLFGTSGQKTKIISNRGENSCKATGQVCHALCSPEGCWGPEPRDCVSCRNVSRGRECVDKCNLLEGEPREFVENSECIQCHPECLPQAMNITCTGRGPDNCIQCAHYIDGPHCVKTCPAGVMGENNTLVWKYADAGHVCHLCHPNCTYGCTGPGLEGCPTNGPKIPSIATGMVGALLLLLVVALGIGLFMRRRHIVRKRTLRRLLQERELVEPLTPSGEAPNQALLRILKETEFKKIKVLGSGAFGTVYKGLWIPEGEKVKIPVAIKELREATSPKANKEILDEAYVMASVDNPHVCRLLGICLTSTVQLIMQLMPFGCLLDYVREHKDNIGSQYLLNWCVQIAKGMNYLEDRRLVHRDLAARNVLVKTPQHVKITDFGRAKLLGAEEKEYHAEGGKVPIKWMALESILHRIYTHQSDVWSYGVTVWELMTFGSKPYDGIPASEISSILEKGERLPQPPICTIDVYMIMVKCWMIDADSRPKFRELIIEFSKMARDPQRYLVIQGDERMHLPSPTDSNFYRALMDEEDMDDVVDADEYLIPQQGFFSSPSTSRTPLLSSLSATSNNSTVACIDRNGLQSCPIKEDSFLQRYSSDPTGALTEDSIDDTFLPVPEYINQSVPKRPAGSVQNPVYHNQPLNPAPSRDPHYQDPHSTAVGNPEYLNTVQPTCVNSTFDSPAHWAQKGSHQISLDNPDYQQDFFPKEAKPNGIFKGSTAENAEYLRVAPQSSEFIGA
Experimental: (§1) H1975 cells (ATCC CRL-5908) were plated at 20,000 cells per well in 96 well plates and placed at 37° C. 5% CO2. Once adhered (after 24 h) cells were treated with compounds dissolved in DMSO at a final concentration of 0.1% DMSO in media. Compounds were diluted in media then added to cells for 3 hours in duplicate. Compound and media were removed from the cells, then 50 ul of HTRF lysis buffer is added (lysis buffer was diluted from 4× stock to 1× in DI water, with 1% blocking agent also added). Cells were lysed on a plate shaker (2000 rpm) for 30 minutes at room temperature. pEGFR expression was monitored using the Cisbio Phospho-EGFR (Tyri068) cellular kit (64EG1PEH). Total EGFR expression was monitored using the Cisbio Total EGFR cellular kit (64NG1PEH) as per manufacturer's instructions. Fluorescence emission was read at two different wavelengths (665 nm and 620 nm) on a PheraStar. Results were calculated as ratio of pEGFR/total EGFR and then percentage of 0 μM control.

[2] = molecular target: T2, Phospho-EGFR (Tyr1068) in H1975 C797S cells (CRISPR-edited EGFR C797S) (Homo sapiens, UniProt P00533, C797S/L858R/T790M); assay: HTRF pEGFR/total EGFR in H1975 C797S cells; format: cell-based; conditions: ratio pEGFR/total EGFR, compound 3 hours
T2 construct: host or cells: H1975 C797S (CRISPR-edited)
T2 sequence (P00533 25-1210 T790M/C797S/L858R): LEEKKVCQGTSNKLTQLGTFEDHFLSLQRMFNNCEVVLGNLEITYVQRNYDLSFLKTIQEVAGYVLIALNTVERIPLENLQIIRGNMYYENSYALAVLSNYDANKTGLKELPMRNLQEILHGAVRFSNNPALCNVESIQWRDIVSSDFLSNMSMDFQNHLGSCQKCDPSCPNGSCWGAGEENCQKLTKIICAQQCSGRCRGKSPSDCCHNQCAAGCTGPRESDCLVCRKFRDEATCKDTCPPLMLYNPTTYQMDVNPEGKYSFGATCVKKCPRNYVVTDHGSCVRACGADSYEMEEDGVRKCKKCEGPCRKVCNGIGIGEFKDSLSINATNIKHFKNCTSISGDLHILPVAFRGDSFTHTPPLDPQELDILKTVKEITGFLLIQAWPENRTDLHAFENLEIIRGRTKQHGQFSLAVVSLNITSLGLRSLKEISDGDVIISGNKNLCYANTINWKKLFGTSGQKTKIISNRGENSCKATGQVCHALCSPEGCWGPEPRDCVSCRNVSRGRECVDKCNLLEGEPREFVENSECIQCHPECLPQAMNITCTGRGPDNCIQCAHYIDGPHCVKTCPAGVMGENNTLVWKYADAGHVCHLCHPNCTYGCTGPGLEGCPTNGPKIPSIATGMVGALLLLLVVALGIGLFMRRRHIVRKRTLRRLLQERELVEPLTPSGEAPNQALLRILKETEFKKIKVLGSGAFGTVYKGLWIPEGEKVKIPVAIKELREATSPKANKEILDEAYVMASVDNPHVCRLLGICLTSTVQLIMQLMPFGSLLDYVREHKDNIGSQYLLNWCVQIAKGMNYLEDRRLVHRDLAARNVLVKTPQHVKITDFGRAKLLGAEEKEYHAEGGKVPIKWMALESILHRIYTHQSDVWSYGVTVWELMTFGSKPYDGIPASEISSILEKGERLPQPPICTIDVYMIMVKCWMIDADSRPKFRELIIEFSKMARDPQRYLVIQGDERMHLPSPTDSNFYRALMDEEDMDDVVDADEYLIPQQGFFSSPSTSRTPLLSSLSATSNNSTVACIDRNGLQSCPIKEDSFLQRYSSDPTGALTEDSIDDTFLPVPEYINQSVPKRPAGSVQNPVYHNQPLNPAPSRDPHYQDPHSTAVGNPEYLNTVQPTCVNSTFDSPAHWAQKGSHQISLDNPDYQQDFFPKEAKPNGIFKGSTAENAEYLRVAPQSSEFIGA
Experimental: as §1, with “[…]. Once” for “H1975 cells (ATCC CRL-5908) were plated at 20,000 cells per well in 96 well plates and placed at 37° C. 5% CO2. Once”, “buffer was” for “buffer is”, “Phospho-EGFR (Tyr1068)” for “Phospho-EGFR (Tyri068)”

[3] = molecular target: T3, Phospho-EGFR (Tyr1068) in A431 cells (Homo sapiens, UniProt P00533); assay: HTRF pEGFR/total EGFR in A431 cells with EGF stimulation; format: cell-based; conditions: ratio pEGFR/total EGFR, compound 2.5 hours then 100 ng/ml EGF 30 mins
T3 construct: endogenous in cells; host or cells: A431
T3 sequence (P00533 25-1210): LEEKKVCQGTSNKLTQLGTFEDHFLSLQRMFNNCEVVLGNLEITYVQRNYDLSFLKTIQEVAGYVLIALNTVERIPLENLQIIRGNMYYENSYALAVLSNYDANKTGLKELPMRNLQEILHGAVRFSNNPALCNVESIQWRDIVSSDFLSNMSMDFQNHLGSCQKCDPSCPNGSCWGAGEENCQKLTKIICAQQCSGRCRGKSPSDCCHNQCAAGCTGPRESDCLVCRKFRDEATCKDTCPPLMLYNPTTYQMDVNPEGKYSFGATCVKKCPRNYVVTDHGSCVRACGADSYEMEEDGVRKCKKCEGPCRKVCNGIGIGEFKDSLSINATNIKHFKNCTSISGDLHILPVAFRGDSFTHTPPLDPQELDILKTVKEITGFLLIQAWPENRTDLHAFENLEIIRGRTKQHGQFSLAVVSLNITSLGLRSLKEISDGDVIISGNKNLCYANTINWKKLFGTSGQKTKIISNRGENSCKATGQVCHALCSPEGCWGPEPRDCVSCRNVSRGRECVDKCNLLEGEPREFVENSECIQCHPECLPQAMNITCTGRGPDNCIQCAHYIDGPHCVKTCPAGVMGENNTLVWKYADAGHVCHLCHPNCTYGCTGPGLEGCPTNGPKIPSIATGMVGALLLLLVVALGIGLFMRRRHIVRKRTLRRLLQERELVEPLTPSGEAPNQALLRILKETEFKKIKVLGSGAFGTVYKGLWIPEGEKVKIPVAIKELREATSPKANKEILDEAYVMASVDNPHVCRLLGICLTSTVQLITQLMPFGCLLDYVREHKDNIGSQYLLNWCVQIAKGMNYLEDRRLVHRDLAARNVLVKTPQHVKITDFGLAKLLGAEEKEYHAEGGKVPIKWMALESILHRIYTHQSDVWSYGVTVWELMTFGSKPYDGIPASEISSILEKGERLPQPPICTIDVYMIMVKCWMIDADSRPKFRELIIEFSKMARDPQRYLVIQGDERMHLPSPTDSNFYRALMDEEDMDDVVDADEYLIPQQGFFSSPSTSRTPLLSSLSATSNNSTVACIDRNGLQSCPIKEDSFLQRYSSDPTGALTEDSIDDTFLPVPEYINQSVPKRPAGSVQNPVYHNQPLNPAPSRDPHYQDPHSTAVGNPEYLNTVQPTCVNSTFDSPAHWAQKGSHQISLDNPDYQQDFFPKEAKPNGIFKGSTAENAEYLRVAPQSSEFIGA
Experimental: Cells were plated at 20,000 cells per well in 96 well plates and placed at 37° C. 5% CO2. Once adhered (after 24 h) cells were treated with compounds dissolved in DMSO at a final concentration of 0.1% DMSO in media. Compounds were diluted in media then added to cells for 2.5 hours in duplicate, 100 ng/ml EGF (ThermoFisher, PHG0311) was added to all compound treated cells as well as a control for 30 mins. Compound and media were removed from the cells, then 50 ul of HTRF lysis buffer was added (lysis buffer was diluted from 4× stock to 1× in DI water, with 1% blocking agent also added). Cells were lysed on a plate shaker (2000 rpm) for 30 minutes at room temperature. pEGFR expression was monitored using the Cisbio Phospho-EGFR (Tyr1068) cellular kit (64EG1PEH). Total EGFR expression was monitored using the Cisbio Total EGFR cellular kit (64NG1PEH) as per manufacturer's instructions. Fluorescence emission was read at two different wavelengths (665 nm and 620 nm) on a PheraStar. Results were calculated as ratio of pEGFR/total EGFR and then percentage of 0 μM control.

[4] = molecular target: CtermHisTag-mEGFR Wild type (Homo sapiens, UniProt P00533); assay: biochemical
CtermHisTag-mEGFR Wild type, sequence (P00533 whole entry): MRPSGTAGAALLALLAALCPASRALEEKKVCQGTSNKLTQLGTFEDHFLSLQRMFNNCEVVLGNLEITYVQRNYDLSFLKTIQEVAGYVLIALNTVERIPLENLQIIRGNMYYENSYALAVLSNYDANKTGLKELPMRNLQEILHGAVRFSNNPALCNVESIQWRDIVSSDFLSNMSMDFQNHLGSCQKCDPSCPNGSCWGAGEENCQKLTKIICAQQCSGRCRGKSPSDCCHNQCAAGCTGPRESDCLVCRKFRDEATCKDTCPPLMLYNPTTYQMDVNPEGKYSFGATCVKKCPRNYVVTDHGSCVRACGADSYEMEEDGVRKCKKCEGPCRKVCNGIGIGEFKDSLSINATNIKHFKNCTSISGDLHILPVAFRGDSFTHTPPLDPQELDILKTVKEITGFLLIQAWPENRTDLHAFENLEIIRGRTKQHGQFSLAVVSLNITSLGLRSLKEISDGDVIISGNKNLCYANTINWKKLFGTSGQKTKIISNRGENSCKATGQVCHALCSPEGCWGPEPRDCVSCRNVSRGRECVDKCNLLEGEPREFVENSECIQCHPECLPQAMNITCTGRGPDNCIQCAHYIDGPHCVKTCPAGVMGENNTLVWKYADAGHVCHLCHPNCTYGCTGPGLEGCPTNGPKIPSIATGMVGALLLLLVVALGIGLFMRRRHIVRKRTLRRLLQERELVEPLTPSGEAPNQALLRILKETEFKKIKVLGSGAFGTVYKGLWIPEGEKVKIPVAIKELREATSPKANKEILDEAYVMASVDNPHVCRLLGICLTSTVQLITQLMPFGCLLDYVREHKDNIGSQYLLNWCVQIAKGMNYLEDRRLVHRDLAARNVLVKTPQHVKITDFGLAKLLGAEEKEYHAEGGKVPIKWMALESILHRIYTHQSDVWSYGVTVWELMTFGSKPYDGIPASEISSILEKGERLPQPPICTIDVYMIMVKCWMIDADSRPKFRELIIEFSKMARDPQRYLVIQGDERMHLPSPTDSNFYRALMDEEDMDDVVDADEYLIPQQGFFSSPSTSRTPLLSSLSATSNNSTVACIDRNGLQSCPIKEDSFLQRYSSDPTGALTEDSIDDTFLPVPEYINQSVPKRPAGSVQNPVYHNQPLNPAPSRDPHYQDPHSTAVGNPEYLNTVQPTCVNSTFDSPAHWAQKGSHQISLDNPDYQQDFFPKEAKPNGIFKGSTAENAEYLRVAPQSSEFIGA

Compound | IC50 [1] [µM] | IC50 [2] [µM] | IC50 [3] [µM] | IC50 [4] [µM]
C#Cc1cc(=O)n(-c2ccccc2)c2nc(Nc3ccc(N4CCC(N5CC(C(C)(C)O)C5)CC4)cc3)ncc12 [Example 40, 5-Ethynyl-2-[(4-{4-[3-(2-hydroxypropan-2-yl)azetidin-1-yl]piperidin-1-yl}phenyl)amino]-8-phenylpyrido[2,3-d]pyrimidin-7-one] | < 0.5 | < 0.5 | 1 to 3 | < 1
C#Cc1cc(=O)n(C)c2nc(Nc3ccc(N(C)CCN(C)C)cc3)ncc12 [Example 43, 2-[(4-{[2-(Dimethylamino)ethyl](methyl)amino}phenyl)amino]-5-ethynyl-8-methylpyrido[2,3-d]pyrimidin-7-one] | < 0.5 | < 0.5 | > 3 | 1 to 10
C#Cc1cc(=O)n(C)c2nc(Nc3cc(-c4cnn(C)c4)c(N4CCOCC4)cc3OC)ncc12 [Example 44, 5-Ethynyl-2-{[2-methoxy-5-(1-methylpyrazol-4-yl)-4-(morpholin-4-yl)phenyl]amino}-8-methylpyrido[2,3-d]pyrimidin-7-one] | 0.5 to 1 | 1 to 3 | > 3 | < 1
C#Cc1cc(=O)n(C)c2nc(Nc3ccc(N4CCN(C)CC4)cc3)ncc12 [Example 45, 5-Ethynyl-8-methyl-2-{[4-(4-methylpiperazin-1-yl)phenyl]amino}pyrido[2,3-d]pyrimidin-7-one] | < 0.5 | < 0.5 | > 3 | < 1
C#Cc1cc(=O)n(C)c2nc(Nc3ccc(OCCN(C)C)cc3)ncc12 [Example 46, 2-({4-[2-(Dimethylamino)ethoxy]phenyl}amino)-5-ethynyl-8-methylpyrido[2,3-d]pyrimidin-7-one] | < 0.5 | < 0.5 | > 3 | 1 to 10
C#Cc1cc(=O)n(C)c2nc(Nc3ccc(N(C)CCN(C)C)c(-c4cnn(C)c4)c3)ncc12 [Example 47, 2-[(4-{[2-(Dimethylamino)ethyl](methyl)amino}-3-(1-methylpyrazol-4-yl)phenyl)amino]-5-ethynyl-8-methylpyrido[2,3-d]pyrimidin-7-one] | < 0.5 | 0.5 to 1 | > 3 | < 1
C#Cc1cc(=O)n(C)c2nc(Nc3ccc(N4CCN(C)CC4)cc3OC)ncc12 [Example 49, 5-Ethynyl-2-{[2-methoxy-4-(4-methylpiperazin-1-yl)phenyl]amino}-8-methylpyrido[2,3-d]pyrimidin-7-one] | < 0.5 | 0.5 to 1 | > 3 | < 1
C#Cc1cc(=O)n(C)c2nc(Nc3ccc(N4CCN(C)CC4)c(NC(C)=O)c3)ncc12 [Example 50, N-[5-({5-Ethynyl-8-methyl-7-oxopyrido[2,3-d]pyrimidin-2-yl}amino)-2-(4-methylpiperazin-1-yl)phenyl]acetamide] | < 0.5 | 0.5 to 1 | > 3 | < 1
C#Cc1cc(=O)n(C)c2nc(Nc3ccc(N4CCN(C)CC4)c(NC(=O)CC)c3)ncc12 [Example 51, N-[5-({5-Ethynyl-8-methyl-7-oxopyrido[2,3-d]pyrimidin-2-yl}amino)-2-(4-methylpiperazin-1-yl)phenyl]propanamide] | < 0.5 | < 0.5 | 1 to 3 | < 1
C#Cc1cc(=O)n(C)c2nc(Nc3cccc(N(C)CCN(C)C)c3)ncc12 [Example 52, 2-[(3-{[2-(Dimethylamino)ethyl](methyl)amino}phenyl)amino]-5-ethynyl-8-methylpyrido[2,3-d]pyrimidin-7-one] | < 0.5 | < 0.5 | > 3 | < 1
C#Cc1cc(=O)n(C)c2nc(Nc3cccc(N(C)C(=O)CN(C)C)c3)ncc12 [Example 53, 2-(Dimethylamino)-N-[3-({5-ethynyl-8-methyl-7-oxopyrido[2,3-d]pyrimidin-2-yl}amino)phenyl]-N-methylacetamide] | > 3 | > 3 | > 3 | 1 to 10
C#Cc1cc(=O)n(-c2cccc([N+](=O)[O-])c2)c2nc(Nc3ccccc3OC)ncc12 [Example 54, 5-Ethynyl-2-((2-methoxyphenyl)amino)-8-(3-nitrophenyl)pyrido[2,3-d]pyrimidin-7(8H)-one] | > 3 | > 3 | > 3 | > 10
C#Cc1cc(=O)n(-c2cccc(N)c2)c2nc(Nc3ccccc3OC)ncc12 [Example 55, 8-(3-Aminophenyl)-5-ethynyl-2-((2-methoxyphenyl)amino)pyrido[2,3-d]pyrimidin-7(8H)-one] | 1 to 3 | > 3 | > 3 | 1 to 10

More lines, now with the values ahead:

IC50 [1] [µM] | IC50 [2] [µM] | IC50 [3] [µM] | IC50 [4] [µM] | Compound
> 3 | > 3 | > 3 | 1 to 10 | C#Cc1cc(=O)n(-c2cccc(NC(=O)COC(C)=O)c2)c2nc(Nc3ccccc3OC)ncc12 [Example 59, 2-((3-(5-Ethynyl-2-((2-methoxyphenyl)amino)-7-oxopyrido[2,3-d]pyrimidin-8(7H)-yl)phenyl)amino)-2-oxoethyl acetate]
> 3 | > 3 | > 3 | 1 to 10 | C#Cc1cc(=O)n(-c2ccc([N+](=O)[O-])cc2)c2nc(Nc3ccccc3OC)ncc12 [Example 60, 5-Ethynyl-2-((2-methoxyphenyl)amino)-8-(4-nitrophenyl)pyrido[2,3-d]pyrimidin-7(8H)-one]
> 3 | > 3 | > 3 | < 1 | C#Cc1cc(=O)n(-c2ccc(N)cc2)c2nc(Nc3ccccc3OC)ncc12 [Example 61, 8-(4-Aminophenyl)-5-ethynyl-2-((2-methoxyphenyl)amino)pyrido[2,3-d]pyrimidin-7(8H)-one]
> 3 | > 3 | > 3 | 1 to 10 | C#Cc1cc(=O)n(-c2ccc(NC(C)=O)cc2)c2nc(Nc3ccccc3OC)ncc12 [Example 62, N-(4-(5-Ethynyl-2-((2-methoxyphenyl)amino)-7-oxopyrido[2,3-d]pyrimidin-8(7H)-yl)phenyl)acetamide]
> 3 | > 3 | > 3 | < 1 | C#Cc1cc(=O)n(-c2ccc(NS(C)(=O)=O)cc2)c2nc(Nc3ccccc3OC)ncc12 [Example 63, N-(4-(5-Ethynyl-2-((2-methoxyphenyl)amino)-7-oxopyrido[2,3-d]pyrimidin-7(8H)-yl)phenyl)methanesulfonamide]
> 3 | > 3 | > 3 | 1 to 10 | C#Cc1cc(=O)n(-c2ccc(NC(=O)COC(C)=O)cc2)c2nc(Nc3ccccc3OC)ncc12 [Example 64, 2-((4-(5-Ethynyl-2-((2-methoxyphenyl)amino)-7-oxopyrido[2,3-d]pyrimidin-8(7H)-yl)phenyl)amino)-2-oxoethyl acetate]
> 3 | > 3 | > 3 | 1 to 10 | C#Cc1cc(=O)n(-c2ccc(NC(=O)CC)cc2)c2nc(Nc3ccccc3OC)ncc12 [Example 65, N-(4-(5-Ethynyl-2-((2-methoxyphenyl)amino)-7-oxopyrido[2,3-d]pyrimidin-7(8H)-yl)phenyl)propionamide]
> 3 | > 3 | > 3 | 1 to 10 | C#Cc1cc(=O)n(-c2ccc(NC(=O)C3CC3)cc2)c2nc(Nc3ccccc3OC)ncc12 [Example 66, N-(4-(5-Ethynyl-2-((2-methoxyphenyl)amino)-7-oxopyrido[2,3-d]pyrimidin-8(7H)-yl)phenyl)cyclopropanecarboxamide]
